Reference: PMC5766510, “Development of a PET radioligand for potassium channels to image CNS demyelination” (Scientific Reports, 2018)
Read-outs that look alike come from different tables or passages of the source.

Columns and labels:
[1] = system: voltage-gated K^+ channels in demyelinated axons; type: in vivo
From the text: Thirty minutes post-injection of the radiolabeled drug, the mice were euthanized and their brains dissected without perfusion to prevent washout of the drug. After dissection, the brains were frozen, cut into thin sections and collected on glass slides. The brain slices were then apposed to autoradiography film to reveal the distribution of the drug in the brain at the time of death. After autoradiography, the same brain sections were stained with the myelin-specific dye Luxol fast blue (LFB).
Number of animals per group was determined using statistical power analysis (α = 0.05, power = 0.80). […] The brains were embedded in Optimal Cutting Temperature (Tissue-Tek), frozen in dry ice and stored at −80 °C. Frozen brains were sliced in a cryostat at 20 μm thickness, the sections mounted on Superfrost Plus slides (Fisher) and allowed to dry at room temperature for at least 30 min. Next, the slides were placed in a cassette in front of autoradiography film (Denville scientific) sealed in the dark at −80 °C for 14–21 days. After that time the cassette was allowed to warm up to room temperature and the films developed inside a dark room using a film processor (Konica). The films were then scanned using an EPSON Perfection V750 scanner (Positive film mode, 8-bit grayscale, 1,200 dpi). After digitizing the radiographs, the same slides were stained using Luxol fast blue (LFB) and cresyl violet. For [^18F]3-F-4-AP autoradiography in rats we injected 1–2 μCi per g. After euthanasia, the brains were dissected without perfusion, frozen in dry ice and sliced in a cryostat at −20 °C.
1 min) and left in LFB solution (0.1 g LFB, 100 mL of 95% EtOH, 0.5 mL glacial acetic acid) overnight at 56 °C. Next morning, the slides were rinsed in 95% EtOH and ddH2O to remove the excess of dye, differentiated in lithium carbonate solution (0.05 g in 100 mL) for 30 s, 70% EtOH for 30 s and rinsed in ddH2O. The differentiation steps were repeated until the gray matter was clear and the white matter appeared blue and sharply defined. Afterwards, the slides were counterstained in cresyl violet (0.1 g in 100 mL of ddH2O, 0.1 mL acetic acid) for 30 s. The slides were differentiated in 95 % EtOH for 5 min and dehydrated (100% EtOH, 2x 5 min ea; 100 % xylene, 2 x, 5 min ea) before mounting with permount (Electron Microscopy Sciences). After staining, images of the slides were collected using the CRi Pannoramic Whole Slide Scanner (Perkin Elmer) equipped with a 20x objective.
Image analysis: The histology images were superimposed on the autoradiography images using Photoshop. The histology images were used to precisely outline the corpus callosum, the cortex and a ~1.5 mm-wide area around the brain (background). The autoradiographic signal from each area was quantified. The background signal was subtracted from the all the areas and defined as zero. The signal intensity of the cortex was set as 1.0 and the signal intensity of the corpus callosum was measured relative to the cortex. Color images were created using the 6-shades look up table (LUT) in ImageJ. […]

in vitro = conditions: mouse, microsomes
[2] = target: non-inactivating Shaker channel from D. melanogaster (Drosophila melanogaster, UniProt P08510, DEL6-46); assay: cell-based
Chain of non-inactivating Shaker channel from D. melanogaster (P08510 other isoform, or with tags, fused parts or gaps DEL6-46): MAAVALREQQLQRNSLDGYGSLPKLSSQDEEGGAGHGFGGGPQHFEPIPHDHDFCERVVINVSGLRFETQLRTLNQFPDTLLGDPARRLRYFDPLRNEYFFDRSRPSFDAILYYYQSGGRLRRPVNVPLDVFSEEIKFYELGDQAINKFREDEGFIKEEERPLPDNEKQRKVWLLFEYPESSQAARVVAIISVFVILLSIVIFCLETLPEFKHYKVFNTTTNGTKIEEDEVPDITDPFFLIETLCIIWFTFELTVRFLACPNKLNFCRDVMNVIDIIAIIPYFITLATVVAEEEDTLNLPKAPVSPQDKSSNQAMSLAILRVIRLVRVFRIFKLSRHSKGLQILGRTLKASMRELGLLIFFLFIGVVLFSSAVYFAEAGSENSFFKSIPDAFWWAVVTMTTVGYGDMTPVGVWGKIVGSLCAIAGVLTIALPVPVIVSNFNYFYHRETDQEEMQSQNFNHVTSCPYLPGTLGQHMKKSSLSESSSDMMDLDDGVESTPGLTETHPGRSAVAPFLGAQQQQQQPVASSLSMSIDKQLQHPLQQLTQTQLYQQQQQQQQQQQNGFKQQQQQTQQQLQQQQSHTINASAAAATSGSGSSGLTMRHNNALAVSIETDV
Experimental: See SI for additional details.
(§1) CI95 = [Upper Limit. Lower Limit]; where Upper Limit = 10^(logEC50+s.d.) and Lower Limit = 10^(logEC50−s.d.). […]
exchanging the external solution (top and guard chambers) several times. After application, cells were voltage-clamped at least 5 min at 0mV, then voltage-clamped at -80mV for 1-2 min.
K+ currents were generated by applying series of 50 ms pulses from -70 mV to +40 mV in increments of 10 mV. The effect of the drug was assessed by measuring the relative intensity of the K+ current before and after applying varying drug concentration at a constant voltage (typically +20 mV) and at the end of the test-pulse. Data acquisition and analysis of the traces was performed using Gpatch software (Department of Anesthesiology, University of California, […]
Los Angeles). […]

C57Bl/6 J mice = assay: In vivo effects (signs of neuroexcitation) after intraperitoneal injection; conditions: mouse, different doses
Experimental: In this experiment, we injected each drug intraperitoneally at different concentrations into mice and looked for signs of neuroexcitation (Fig. 3B).
10-week-old female C57Bl/6 J mice were given an intraperitoneal injection of the drug under investigation and monitored continuously for 4 h. […] At least 72 h passed between injections to the same mice.

[3] = system: K^+ channels in explanted mouse optic nerves; assay: Compound action potential (CAP) of dissected mouse optic nerves; conditions: for IC50: CAP enhancement, given as IC50; for IC50 / activity in enhancing the CAP: dysmyelinated (Shiverer) optic nerves; for times less potent: from EC50 values, versus 4-AP and 3-F-4-AP
Experimental: Therefore, we tested the effects of these compounds on the compound action potential (CAP) of dysmyelinated optic nerves from control and Shiverer mice (Fig. 2E).
Optic nerves were dissected from 12–16 week old Shiverer (Mbp^shi/shi) and control mice (Mbp^+/shi and Mbp^+/+). Compound action potentials (CAP) were recorded using suction electrodes as described by Stys et al.[91]. See SI for additional details.
as §1
Dissection of optic nerves: Optic nerves were dissected from 12-16 week old Shiverer (Mbpshi/shi) and control mice (Mbp+/shi and Mbp+/+). Mice were euthanized by CO2 overdose and the optic nerves were quickly dissected between the eyeball and the optic chiasm. The nerves […]
Optic nerve electrophysiology: Compound action potentials (CAP) from dysmyelinated nerves (Shiverer mice, Mbpshi/shi) and myelinated nerves (litermate controls, Mbp+/shi and Mbp+/+) were […]
between two suction electrodes (stimulus and recording electrodes) forming a tight seal on each end. Two additional electrodes were placed in the bath for reference. A supramaximal pulse (250 mV, 20 μs) was applied at the stimulating end of the nerve. The resulting CAP was amplified from the recording electrode using a high impedance low-noise amplifier (EG&G Princeton Applied Research Corporation) sampled at 100 kHz and filtered at 10 kHz. To assess […]
concentrations to the recording chamber after the CAP was allowed to stabilize for 5 min while […]
pulsing repeatedly. After each measurement, the chamber was washed for 5 min (flow 1 […]
mL/min) with oxygenated aCSF. […]
conduction and the temperature was monitored throughout the experiment. CAP recordings were acquired with a SBC6711 board (Innovative Integration) controlled by in-house written software. Analysis of the traces was done using an in-house software. The half-maximal […]
amplitude vs. concentration and fitted to the Hill equation using Origin. […]
Compound action potential of nerve recorded by suction electrode: a theoretical and experimental analysis. […]

[4] = relative K^+ current at +20 mV, Hill equation fit, read-out: Half-maximal inhibitory concentration (IC50)

Nc1c[14cH]n[14cH]c1 [[^14C]4-AP, [2,6-^14C]4-aminopyridine, reference compound]
autoradiographic signal in the demyelinated area ([1]; LPC-injected mice, 3 days after injection, normalized to cortex): 0.733 ± 0.047 | autoradiographic signal in the contralateral control area ([1]; LPC-injected mice, opposite hemisphere, normalized to cortex): 0.507 ± 0.070

CC(C)NCC(O)COc1cccc2ccccc12 (centres unmarked) [Propranolol, propranolol]
half-life (in vitro): 25.6 ± 2.1 min

O=[14CH]C[C@@H](O)[C@H](O)[C@H](O)CO [2-DG, [1-^14C]2-deoxy-D-glucose, reference compound]
difference in brain distribution between wild type and Shiverer mice ([1]; mouse, in vivo): no differences were seen

Nc1ccncc1CF [3-FMe-4-AP, 3-fluoromethyl-4-aminopyridine]
IC50 [2, 4]: 7.45 mM | signs of neuroexcitation, summary in words relative to 4-AP (C57Bl/6 J mice): half as potent as 4-AP | IC50 [3]: 386 µM | times less potent [3]: 4–6 times

Nc1ccncc1CO [3-HOMe-4-AP, 3-hydroxymethyl-4-aminopyridine, reference compound]
IC50 [2]: 4.38 mM | signs of neuroexcitation, summary in words relative to 4-AP (C57Bl/6 J mice): did not cause any effects at doses up to 20 times greater | IC50 [3]: 386 µM | times less potent [3]: 4–6 times

Nc1ccnc(F)c1 [2-F-4-AP, 2-fluoro-4-aminopyridine]
IC50 [2, 4]: > 10 mM | signs of neuroexcitation, summary in words relative to 4-AP (C57Bl/6 J mice): did not cause any effects at doses up to 20 times greater | activity in enhancing the CAP [3]: inactive

Nc1ccncc1CCF [3-FEt-4-AP, 3-fluoroethyl-4-aminopyridine]
IC50 [2]: > 10 mM | activity in enhancing the CAP [3]: inactive

Nc1c[14cH]n[14cH]c1F [[^14C]3-F-4-AP, [2,6-^14C]4-amino-3-fluoropyridine]
relative autoradiographic signal intensity in corpus callosum ([1]; Shiverer (Mbp^shi/shi) mice, normalized to cortex): 0.878 ± 0.043 | increase in signal, Shiverer versus control white matter ([1]; corpus callosum): 29% | relative autoradiographic signal intensity in myelinated white matter ([1]; wild-type/control mice, normalized to cortex (gray matter = 1.0)): 0.679 ± 0.046
